The target in this assay is T1, human FSH receptor (Homo sapiens, UniProt P23945).
T1 construct: expressed in transfected cells; host or cells: CHO cells (hFSHR clone 16)
T1 sequence (P23945 18-695): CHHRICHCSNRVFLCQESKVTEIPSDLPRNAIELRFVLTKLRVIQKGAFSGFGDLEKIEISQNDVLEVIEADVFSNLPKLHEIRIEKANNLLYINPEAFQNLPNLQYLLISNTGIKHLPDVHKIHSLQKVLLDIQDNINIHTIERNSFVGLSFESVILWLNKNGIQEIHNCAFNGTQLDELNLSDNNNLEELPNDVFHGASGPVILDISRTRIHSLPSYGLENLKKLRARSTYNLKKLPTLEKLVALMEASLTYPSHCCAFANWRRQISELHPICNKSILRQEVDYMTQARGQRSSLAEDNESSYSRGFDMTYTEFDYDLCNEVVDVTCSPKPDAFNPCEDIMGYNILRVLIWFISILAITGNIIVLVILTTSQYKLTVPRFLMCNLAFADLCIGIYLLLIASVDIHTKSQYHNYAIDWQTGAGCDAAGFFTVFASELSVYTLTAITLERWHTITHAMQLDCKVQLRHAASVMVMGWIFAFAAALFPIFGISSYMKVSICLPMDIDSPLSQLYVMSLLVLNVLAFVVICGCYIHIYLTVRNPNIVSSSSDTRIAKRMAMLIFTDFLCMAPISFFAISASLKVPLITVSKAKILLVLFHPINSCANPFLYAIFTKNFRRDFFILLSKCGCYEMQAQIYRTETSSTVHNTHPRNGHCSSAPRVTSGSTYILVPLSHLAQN
Put plainly: HTRF assay for measuring cAMP in cells (FSH-antagonistic effect). Format: cell-based. The note with it: hFSHR clone 16 cells (CHO cells stably transfected with the human FSH receptor), in the presence of 1e-9 mol/l hFSH, 37° C. for 2 h. How it is done:
HTRF Assay for Measuring cAMP in Cells
The method is based on a competitive immunoassay between native cAMP, which has been produced by the cells, and cAMP which is labelled with cAMPD2 conjugate. The tracer binding was visualized by a monoclonal antibody, anti-cAMP labelled with cryptate [HTRF=homogeneous time-resolved fluorescence].
The specific signal is inversely proportional to the cAMP concentration of the samples employed.
The 665 nm/620 nm fluorescence ratio was evaluated.
Materials used: 96-well plates for the tissue culture, 96-well plates with black edge and black base (e.g. Fluotrac 600 from Greiner), 96-well plates for the substance dilutions of polypropylene and cAMP Femtomolar (4000 wells Kit, CIS Bio International # 62AM5PEJ).
Reagent used: BSA (bovine serum albumin) Fraction V protease-free, IBMX (3-isobutyl-1-methylxanthine), hFSH (human follicle stimulating hormone), Triton X-100 analytical grade, potassium fluoride analytical grade, G 418 (Geneticin) and Accutase.
Buffer 1 (washing and testing buffer) contained PBS, 1 mM CaCl2, 1 mM MgCl2, 0.2% glucose; 0.1% BSA, 1 mM IBMX.
Buffer 2 (2× lysis buffer) contained 1% Triton X-100 in PBS (without CaCl2 and MgCl2).
Buffer 3 (assay buffer) contained 50 mM potassium phosphate buffer (pH 7.0); 800 mM potassium fluoride; 0.2% BSA (always added fresh).
On day 1, the cells were seeded in 96-well plates (3×10^4 cells per well hFSHR clone 16 cells (CHO cells stably transfected with the human FSH receptor in 150 μl of medium). The next day, test substance dilutions were made up. For this purpose, all the substances were diluted in ice-cold buffer 1 (with or without hFSH), and the substance dilutions were placed on ice until applied to the cells. The cell supernatant was then aspirated off, and the cells were washed 2× with 200 μl of buffer 1. The cells were treated with 60 μl of the appropriate substance concentrations at 37° C. for 2 h. The cells were then lysed with 60 μl of buffer 2 (put onto the supernatant) (on a plate shaker at RT for 30 min). The test conjugates (cAMP-D2 and anti-cAMP cryptate, CIS Bio) were diluted in buffer 3 in accordance with the manufacturers' information. The actual mixture for measurement was pipetted into a black 96-well plate (in each case 15 μl of the cell lysate diluted with 35 μl of buffer 1; firstly 25 μl of cAMP-D2 conjugate were pipetted and, after 10 min, 25 μl of the anti-cAMP cryptate were added). This is followed by incubation at RT for 90 minutes. The measurement was carried out in a PheraStar (BMG).
Dose-effect curve (hFSH) for the human receptor: 1e-8, 3e-9, 1e-9, 3e-10, 1e-10, 3e-11, 1e-11, 3e-12 mol/l.
The test substances were employed in suitable dilutions in the absence (test for agonism) and in the presence of 1e-9 mol/l hFSH.
The values of the well ratio were averaged and then entered directly in SigmaPlot versus the concentrations. The maximum and minimum values were determined for each plate, and half the difference is to be regarded as IC50.

Consider `CC(C)Oc1ccc(C#Cc2ccc3c(c2)C(=O)NC3)cc1C(=O)N[C@@H](CO)Cc1c[nH]c2ccccc12` [Example 155, N-[(R)-1-Hydroxymethyl-2-(1H-indol-3-yl)-ethyl]-2-isopropoxy-5-(3-oxo-2,3-dihydro-1H-isoindol-5-ylethynyl)-benzamide], for which the IC50 was determined as 15 nM. For `CC(C)Oc1ccc(C#Cc2ccc3c(c2)CCNC3=O)cc1C(=O)N[C@@H](CO)Cc1c[nH]c2ccccc12` [Example 154, N-[(R)-1-Hydroxymethyl-2-(1H-indol-3-yl)-ethyl]-2-isopropoxy-5-(1-oxo-1,2,3,4-tetrahydro-isoquinolin-6-ylethynyl)-benzamide] the value was 6 nM; for `CNC(=O)c1cccc(C#Cc2ccc(Cl)c(C(=O)N[C@@H](CO)Cc3c[nH]c4ccccc34)c2)c1` [Example 79, 2-Chloro-N-[(R)-2-hydroxy-1-(1H-indol-3-ylmethyl)-ethyl]-5-(3-methylcarbamoyl-phenylethynyl)-benzamide], 3500 nM.

On to `CC(C)Oc1ccc(C#Cc2cncnc2)cc1C(=O)N[C@@H](CO)Cc1c[nH]c2ccccc12` [Example 46, N-[(R)-1-Hydroxymethyl-2-(1H-indol-3-yl)-ethyl]-2-isopropoxy-5-pyrimidin-5-ylethynyl-benzamide], for which the IC50 was found to be 150 nM. On to `CC(C)Oc1ccc(C#Cc2ccc(N3CCCC3=O)cc2)cc1C(=O)N[C@@H](CO)Cc1c[nH]c2ccccc12` [Example 124, N-[(R)-1-Hydroxymethyl-2-(1H-indol-3-yl)-ethyl]-2-isopropoxy-5-[4-(2-oxo-pyrrolidin-1-yl)-phenylethynyl]-benzamide], for which the IC50 stood at 80 nM. The figure for `CC(C)Oc1ccc(C#Cc2ccsc2)cc1C(=O)N[C@@H](CO)Cc1c[nH]c2ccccc12` [Example 100, N-[(R)-2-Hydroxy-1-(1H-indol-3-ylmethyl)-ethyl]-2-isopropoxy-5-thiophen-3-ylethynyl-benzamide] is 70 nM; for `CC(C)Oc1ccc(C#Cc2ccccc2C(F)(F)F)cc1C(=O)N[C@@H](CO)Cc1c[nH]c2ccccc12` [Example 119, N-[(R)-2-Hydroxy-1-(1H-indol-3-ylmethyl)-ethyl]-2-isopropoxy-5-(2-trifluoromethyl-phenylethynyl)-benzamide] it is 25 nM.

Take `CC(C)Oc1ccc(C#Cc2ccc(-c3cc[nH]n3)cc2)cc1C(=O)N[C@@H](CO)Cc1c[nH]c2ccccc12` [Example 142, N-[(R)-2-Hydroxy-1-(1H-indol-3-ylmethyl)-ethyl]-2-isopropoxy-5-[4-(1H-pyrazol-3-yl)-phenylethynyl]-benzamide]: the IC50 was found to be 10 nM. For `CC(C)Oc1ccc(C#Cc2ccc3ccccc3c2)cc1C(=O)N[C@@H](CO)Cc1c[nH]c2ccccc12` [Example 52, N-[(R)-1-Hydroxymethyl-2-(1H-indol-3-yl)-ethyl]-2-isopropoxy-5-naphthalen-2-ylethynyl-benzamide] the value was 80 nM. The figure for `CC(C)Oc1ccc(C#Cc2ccc(OCCN(C)C)cc2)cc1C(=O)N[C@@H](CO)Cc1c[nH]c2ccccc12` [Example 103, 5-[4-(2-Dimethylamino-ethoxy)-phenylethynyl]-N-[(R)-1-hydroxymethyl-2-(1H-indol-3-yl)-ethyl]-2-isopropoxy-benzamide] is 1300 nM; for `CC(C)Oc1ccc(C#Cc2cccc(CN3CCNCC3)c2)cc1C(=O)N[C@@H](CO)Cc1c[nH]c2ccccc12` [Example 141, N-[(R)-1-Hydroxymethyl-2-(1H-indol-3-yl)-ethyl]-2-isopropoxy-5-(3-piperazin-1-ylmethyl-phenylethynyl)-benzamide] it is 2000 nM. For `CC(C)Oc1ccc(C#Cc2cccc(-c3nnn[nH]3)c2)cc1C(=O)N[C@@H](CO)Cc1c[nH]c2ccccc12` [Example 148, N-[(R)-2-Hydroxy-1-(1H-indol-3-ylmethyl)-ethyl]-2-isopropoxy-5-[3-(1H-tetrazol-5-yl)-phenylethynyl]-benzamide] the value was 30 nM; for `CNC(=O)CCCc1ccc(C#Cc2ccc(OC(C)C)c(C(=O)N[C@@H](CO)Cc3c[nH]c4ccccc34)c2)cc1` [Example 70, N-[(R)-1-Hydroxymethyl-2-(1H-indol-3-yl)-ethyl]-2-isopropoxy-5-[4-(3-methylcarbamoyl-propyl)-phenylethynyl]-benzamide], 45 nM; for `CC(C)Oc1ccc(C#Cc2ccc(C(=O)O)o2)cc1C(=O)N[C@@H](CO)Cc1c[nH]c2ccccc12` [Example 88, 5-{3-[(R)-1-Hydroxymethyl-2-(1H-indol-3-yl)-ethylcarbamoyl]-4-isopropoxy-phenylethynyl}-furan-2-carboxylic acid], 60 nM.

Regarding `CC(C)Oc1ccc(C#Cc2ccc(N3CCNC3=O)cc2)cc1C(=O)N[C@@H](CO)Cc1c[nH]c2ccccc12` [Example 146, N-[(R)-1-Hydroxymethyl-2-(1H-indol-3-yl)-ethyl]-2-isopropoxy-5-[4-(2-oxo-imidazolidin-1-yl)-phenylethynyl]-benzamide], the IC50 came to 70 nM.

Turning to `COc1ccc(C#Cc2ccc(OC(C)C)c(C(=O)N[C@@H](CO)Cc3c[nH]c4ccccc34)c2)cc1F` [Example 30, 5-(3-Fluoro-4-methoxy-phenylethynyl)-N-[(R)-2-hydroxy-1-(1H-indol-3-ylmethyl)-ethyl]-2-isopropoxy-benzamide], the half-maximal inhibitory concentration (IC50) worked out at 150 nM. Consider `CC(C)Oc1ccc(C#Cc2ccc(C3(O)CCNCC3)cc2)cc1C(=O)N[C@@H](CO)Cc1c[nH]c2ccccc12` [Example 106, N-[(R)-1-Hydroxymethyl-2-(1H-indol-3-yl)-ethyl]-5-[4-(4-hydroxy-piperidin-4-yl)-phenylethynyl]-2-isopropoxy-benzamide], for which the IC50 worked out at 4000 nM. For `Cc1ccc(C)c(C#Cc2ccc(OC(C)C)c(C(=O)N[C@@H](CO)Cc3c[nH]c4ccccc34)c2)c1` [Example 48, 5-(2,5-Dimethyl-phenylethynyl)-N-[(R)-1-hydroxymethyl-2-(1H-indol-3-yl)-ethyl]-2-isopropoxy-benzamide] the value was 30 nM; for `COC(=O)CCNC(=O)c1cccc(C#Cc2ccc(OC(C)C)c(C(=O)N[C@@H](CO)Cc3c[nH]c4ccccc34)c2)c1` [Example 165, 3-(3-{3-[(R)-1-Hydroxymethyl-2-(1H-indol-3-yl)-ethylcarbamoyl]-4-isopropoxy-phenylethynyl}-benzoylamino)-propionic acid methyl ester], 15 nM; for `CC(C)Oc1ccc(C#Cc2ccc(C#N)cc2)cc1C(=O)N[C@@H](CO)Cc1c[nH]c2ccccc12` [Example 110, 5-(4-Cyano-phenylethynyl)-N-[(R)-1-hydroxymethyl-2-(1H-indol-3-yl)-ethyl]-2-isopropoxy-benzamide], 350 nM. For `O=C(N[C@@H](CO)Cc1c[nH]c2ccccc12)c1cccc(C#Cc2ccccn2)c1` [Example 160, N-[(R)-1-Hydroxymethyl-2-(1H-indol-3-yl)-ethyl]-3-pyridin-2-ylethynyl-benzamide] the value was 6000 nM.

By IC50 is commonly meant the concentration at which inhibition is half-maximal.
